Data from the CombiSolv-Exp solvation set (Vermeire and Green 2021).

Test: solvent given as SMILES

CCO
Details	solvation free energy, 298 K [kcal/mol]
in Brc1ccccc1	-3.13
in C1CCCCC1	-2.32
in C1CCOC1	-4.51
in C1COCCO1	-4.36
in C=CCCCCCCC	-2.34
in CC1COC(=O)O1	-4.2
in CC#N	-4.38
in CC(=O)N(C)C	-5.24
in CC(=O)O	-5.22
in CC(=O)c1ccccc1	-4.04
in CC(C)(C)O	-5.05
in CC(C)=O	-4.54
in CC(C)CC(C)(C)C	-2.36
in CC(C)CCCC(C)CCCC(C)CCCCC(C)CCCC(C)CCCC(C)C	-2.01
in CC(C)CCO	-4.8
in CC(C)CO	-4.79
in CC(C)O	-4.94
in CC(C)OC(C)C	-3.77
in CC(Cl)Cl	-3.56
in CCC(C)=O	-4.36
in CCCC#N	-4.1
in CCCCC(CC)COC(=O)CCCCC(=O)OCC(CC)CCCC	-3.37
in CCCCCCC	-2.2
in CCCCCCCC	-2.14
in CCCCCCCCC=CCCCCCCCC(=O)OCC(COC(=O)CCCCCCCC=CCCCCCCCC)OC(=O)CCCCCCCC=CCCCCCCCC	-3.22
in CCCCCCCCCC	-2.25
in CCCCCCCCCCCCCCCC	-1.97
in CCCCCCCCCCO	-4.1
in CCCCCCCCCOC(=O)c1ccccc1C(=O)OCCCCCCCCC	-3.26
in CCCCCCCCO	-4.43
in CCCCCO	-4.65
in CCCCCl	-3.07
in CCCCN(C=O)CCCC	-4.53
in CCCCO	-4.9
in CCCCOCCCC	-3.32
in CCCO	-4.91
in CCCOCCC	-3.45
in CCN(CC)C(C)=O	-5.06
in CCN(CC)CC	-4.02
in CCNC(C)=O	-4.95
in CCNC=O	-4.9
in CCOC(=O)c1ccccc1C(=O)OCC	-3.54
in CCOC(C)=O	-4.13
in CCOCC	-4.42
in CCOCCO	-4.56
in CCOCCOCCOCC	-4.21
in CCOP(=O)(OCC)OCC	-4.76
in CCOc1ccccc1	-3.36
in CN1CCCC1=O	-5.09
in CN1CCCCC1=O	-5.13
in CN1CCN(C)C1=O	-4.92
in CN(C)C=O	-5.1
in CN(C)P(=O)(N(C)C)N(C)C	-6.13
in CNC(C)=O	-4.98
in CNC=O	-4.96
in CO	-5.28
in COC(C)(C)C	-3.94
in COC(C)=O	-4.11
in COCCO	-4.79
in COP(=O)(OC)OC	-4.98
in COc1ccccc1	-3.52
in CS(C)=O	-5.24
in Cc1ccc(C)cc1	-3.12
in Cc1cccc(C)c1	-3
in Cc1cccc(C)n1	-4.87
in Cc1cccc(O)c1	-5.53
in Cc1ccccc1	-3.22
in Cc1ccccn1	-4.97
in ClC(Cl)(Cl)Cl	-2.97
in ClC(Cl)Cl	-3.96
in ClCCl	-3.75
in Clc1ccccc1	-3.18
in FC(F)(F)C(F)(F)C(F)(F)C(F)(F)C(F)(F)C(F)(F)F	-1.55
in Fc1c(F)c(F)c(F)c(F)c1F	-2.79
in Fc1ccccc1	-3.32
in ICI	-2.83
in Ic1ccccc1	-3.04
in NC=O	-4.84
in Nc1ccccc1	-4.38
in O	-5.01
in O=C1CCCCC1	-4.34
in O=C1CCCO1	-4.44
in O=CN1CCOCC1	-4.53
in OCC(O)CO	-4.32
in OCCO	-4.71
in OCCOCCO	-4.56
in OCCOCCOCCO	-4.17
in OCc1ccccc1	-4.79
in S=C=S	-2.71
in [2H]O[2H]	-5.08
in c1ccc2ncccc2c1	-4.53
in c1ccc(COCc2ccccc2)cc1	-3.38
in c1ccccc1	-3.28
in c1ccncc1	-5.05

Clc1c(Cl)c(Cl)c2c(c1Cl)Oc1c(Cl)c(Cl)c(Cl)c(Cl)c1O2
Details	solvation free energy, 298 K [kcal/mol]
in O	-4.53

CCCCCCCCCCCCCCCCCCCCCCC
Details	solvation free energy, 298 K [kcal/mol]
in CC(=O)N(C)C	-15.7
in CC(C)(C)O	-14.2
in CC(C)=O	-13.4
in CCC(C)=O	-14.3
in CCC(C)O	-14.1
in CCCCOC(C)=O	-14.9
in CCOC(C)=O	-14.4
in CN(C)C=O	-15.8
in COC(C)=O	-13.7
in O	5.07

Nc1ccc(S(=O)(=O)Nc2nccs2)cc1
Details	solvation free energy, 298 K [kcal/mol]
in O	-18.2

c1ccc(P(c2ccccc2)c2ccccc2)cc1
Details	solvation free energy, 298 K [kcal/mol]
in CC(C)O	-15.4
in CCO	-15.7
in CO	-15.4

CCCCC(C)(C)C
Details	solvation free energy, 298 K [kcal/mol]
in O	3.02

O=[N+]([O-])c1c(Cl)c(Cl)cc(Cl)c1Cl
Details	solvation free energy, 298 K [kcal/mol]
in CCCCCCCCC=CCCCCCCCC(=O)OCC(COC(=O)CCCCCCCC=CCCCCCCCC)OC(=O)CCCCCCCC=CCCCCCCCC	-10.8
in O	-3.77

C=C1CC2CCC1C2(C)C (centres undefined)
Details	solvation free energy, 298 K [kcal/mol]
in O	0.52

ClCCCCl
Details	solvation free energy, 298 K [kcal/mol]
in CC(C)=O	-5.63
in CCCCCC	-4.43
in ClC(Cl)(Cl)Cl	-5.2
in O	-1.89

CCCCCCc1ccccc1
Details	solvation free energy, 298 K [kcal/mol]
in CO	-7.13

CC1=CC2C(=CC1)C(C)CCC2C(C)C (centres undefined)
Details	solvation free energy, 298 K [kcal/mol]
in O	-0.26

CCC(C)OC(C)CC (centres undefined)
Details	solvation free energy, 298 K [kcal/mol]
in O	-0.8

CCc1ccccc1
Details	solvation free energy, 298 K [kcal/mol]
in C1CCOC1	-6.03
in C1COCCO1	-5.7
in C=CCCCCCCCCCCCCCC	-5.07
in CC#N	-5.19
in CC(=O)N(C)C	-5.46
in CC(C)(C)O	-4.99
in CC(C)CC(C)(C)C	-5.3
in CC(C)CO	-4.95
in CC(C)O	-4.88
in CC(O)CO	-4.1
in CCC#N	-5.78
in CCC(C)=O	-5.62
in CCCC#N	-5.6
in CCCCC(CC)COC(=O)CCCCC(=O)OCC(CC)CCCC	-5.37
in CCCCCC	-5.35
in CCCCCCC	-5.36
in CCCCCCCCCC	-5.23
in CCCCCCCCCCCCCCCC	-5.16
in CCCCCCCCO	-5.05
in CCCCN(C=O)CCCC	-5.44
in CCCCOC(=O)c1ccccc1C(=O)OCCCC	-5.38
in CCCO	-4.93
in CCO	-4.83
in CCOC(=O)c1ccccc1C(=O)OCC	-5.23
in CN(C)C=O	-5.41
in CNC(C)=O	-5.05
in CNC=O	-4.82
in CO	-4.86
in COCCO	-5.05
in Clc1ccccc1	-5.84
in NC=O	-3.26
in O	-0.72
in O=CN1CCOCC1	-5.01
in O=Cc1ccco1	-5.04
in OCCCCCO	-4.4
in OCCCCO	-4.2
in OCCCO	-3.91
in OCCO	-3.36
in OCCOCCO	-4.15
in OCCOCCOCCO	-4.31
in OCCOCCOCCOCCO	-4.38

CCNc1nc(Cl)nc(NCC)n1
Details	solvation free energy, 298 K [kcal/mol]
in O	-10.1

Cc1cccc2c(C)cccc12
Details	solvation free energy, 298 K [kcal/mol]
in CCCCCCCCC=CCCCCCCCC(=O)OCC(COC(=O)CCCCCCCC=CCCCCCCCC)OC(=O)CCCCCCCC=CCCCCCCCC	-9.3
in O	-2.78

Clc1cc2c(cc1Cl)Oc1c(Cl)c(Cl)c(Cl)c(Cl)c1O2
Details	solvation free energy, 298 K [kcal/mol]
in O	-3.71

O=C(c1ccc(Br)cc1)N(O)c1ccc(Cl)cc1
Details	solvation free energy, 298 K [kcal/mol]
in O	-11.6

COc1cc(C)ccc1O
Details	solvation free energy, 298 K [kcal/mol]
in O	-5.8

CC1CCC2(C(C)C)CC12 (centres undefined)
Details	solvation free energy, 298 K [kcal/mol]
in O	1.13

CC(C)CCCOC(=O)c1ccccc1C(=O)OCCCC(C)C
Details	solvation free energy, 298 K [kcal/mol]
in O	-6.73

ClC(Cl)=C(Cl)C(Cl)=C(Cl)Cl
Details	solvation free energy, 298 K [kcal/mol]
in O	-0.46

O=C(CC(=O)C(F)(F)F)c1cccs1
Details	solvation free energy, 298 K [kcal/mol]
in O	-6.15

C1CC1
Details	solvation free energy, 298 K [kcal/mol]
in C1COCCO1	-1.94
in CC(C)O	-1.58
in CCCCCC	-1.98
in CCCCO	-1.72
in CCCO	-1.57
in O	0.75

CCCCCOCCCCC
Details	solvation free energy, 298 K [kcal/mol]
in CCCCCCCCCCCCCCCC	-6.4
in CCCCCCCCO	-6.46

Cc1cc(C)c(C)cc1C
Details	solvation free energy, 298 K [kcal/mol]
in CC(C)(C)O	-6.62
in CC(C)CC(C)(C)C	-7.1
in CC(C)CC(C)O	-6.69
in CC(C)CCO	-6.63
in CC(C)CO	-6.52
in CC(C)O	-6.49
in CCC(C)O	-6.62
in CCCC(C)O	-6.69
in CCCCCC	-7.24
in CCCCCCC	-7.19
in CCCCCCCC	-7.14
in CCCCCCCCC=CCCCCCCCC(=O)OCC(COC(=O)CCCCCCCC=CCCCCCCCC)OC(=O)CCCCCCCC=CCCCCCCCC	-7.13
in CCCCCCCCCC	-7.08
in CCCCCCCCCCO	-6.84
in CCCCCCCCO	-6.81
in CCCCCCCO	-6.78
in CCCCCCO	-6.75
in CCCCCO	-6.71
in CCCCO	-6.71
in CCCCOCCCC	-7.19
in CCCO	-6.54
in CCO	-6.44
in CCOCC	-7.34
in CO	-6.18
in O	-0.72

O=[N+]([O-])c1cccc2ccccc12
Details	solvation free energy, 298 K [kcal/mol]
in CC(C)(C)O	-9.71
in CC(C)CC(C)(C)C	-9.18
in CC(C)CCO	-9.67
in CC(C)CO	-9.55
in CC(C)O	-9.78
in CC(C)OC(C)C	-10.4
in CCC(C)O	-9.94
in CCCC(C)O	-9.83
in CCCCC(CC)CO	-9.76
in CCCCCC	-9.35
in CCCCCCC	-9.37
in CCCCCCCC	-9.38
in CCCCCCCCCC	-9.39
in CCCCCCCCCCO	-9.94
in CCCCCCCCO	-9.98
in CCCCCCCO	-9.98
in CCCCCCO	-10
in CCCCCO	-9.99
in CCCCO	-9.97
in CCCCOCCCC	-10.2
in CCCO	-9.99
in CCO	-10.1
in CCOCC	-11
in COC(C)(C)C	-10.9
in O	-5.65
